The target of this test is T1, SGSH (sulfamidase; N-sulfoglucosamine sulfohydrolase) (Homo sapiens, UniProt P51688).
T1 construct: full-length cDNA with C-terminal RSHHHHHH (residues 503-510), tag kept; secreted from HEK 293 cells, HisTrap purified; signal peptide removed (modelled from residue 21/22); glycosylated; Cys70 converted to formylglycine; homodimer, 55 kDa unglycosylated subunit
T1 sequence (P51688 21-502): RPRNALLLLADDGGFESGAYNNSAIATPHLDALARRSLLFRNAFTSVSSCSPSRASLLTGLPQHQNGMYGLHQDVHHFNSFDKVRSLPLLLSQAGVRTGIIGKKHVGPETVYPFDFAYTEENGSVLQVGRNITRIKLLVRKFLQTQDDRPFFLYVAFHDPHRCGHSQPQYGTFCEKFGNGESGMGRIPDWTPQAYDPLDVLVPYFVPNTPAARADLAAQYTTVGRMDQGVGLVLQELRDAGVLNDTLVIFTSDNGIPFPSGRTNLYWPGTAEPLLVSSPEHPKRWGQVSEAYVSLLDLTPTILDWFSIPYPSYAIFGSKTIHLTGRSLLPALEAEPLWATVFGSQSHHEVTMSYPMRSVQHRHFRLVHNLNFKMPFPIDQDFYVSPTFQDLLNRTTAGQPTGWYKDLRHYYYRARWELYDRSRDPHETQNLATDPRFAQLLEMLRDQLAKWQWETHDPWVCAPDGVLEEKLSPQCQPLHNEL
In words: two-step fluorometric assay with MU-alphaGlcNS, alpha-glucosidase coupled. Type of test: biochemical.

In general, IC50 refers to the midpoint of a concentration-inhibition curve. As to `O=P(O)(O)O` [phosphate], the IC50 was determined as 1 mM. The compound `O=S(=O)(O)O` [sulfate] gave an IC50 of 5 mM.

Source of the values: paper PMC4014121, “Structure of sulfamidase provides insight into the molecular pathology of mucopolysaccharidosis IIIA” (Acta Crystallographica Section D: Biological Crystallography, 2014).
